Results from publication PMC5073322, “Novel Natural Product-like Caged Xanthones Bearing a Carbamate Moiety Exhibit Antitumor Potency and Anti-Angiogenesis Activity In vivo” (Scientific Reports, 2016).

Legend:
HCT116 = test: MTT antiproliferative assay, HCT116; settings: read-out: IC50 HCT116; MTT, 72 h
Method: (§1) The inhibition of tumour cell growth was measured by a modified tetrazolium (MTT) salt assay, as previously described[39]. Cells were cultured in a 96-well plate and treated with culture medium alone or different concentrations of the compounds. The cells were incubated for 72 h, and then, the MTT assay reagent was added. After a 4 h incubation, the formazan product was quantitated at 570 nm. The IC50 values (the concentrations that gave rise to 50% inhibition of cell viability) were calculated using GraphPad Prism 6 using a variable slope (four parameters).

VEGF = VEGF mRNA by real-time RT-PCR; format: cell-based; settings: hypoxia, VEGF/GAPDH
Method: Figure 9 (A) The caged compounds (50 μM) inhibited the Hsp90 ATPase activity in a HTRF-based inhibition assay. (B) The IC50 values for the inhibition of Hsp90 ATPase by 8n, 8o and GA as detected by the HTRF Transcreener ADP kit. The test compounds were diluted to obtain a range of concentrations and incubated with Hsp90 and ATP. The amount of ADP generated was detected. (C) Western blots of the Hsp90 client proteins after HepG2 cells were treated with the indicated concentrations of 8n for 24 h. (D) The mRNA expression of VEGF was determined by real-time quantitative reverse-transcriptase polymerase chain reaction (RT-PCR) and analysed by the delta Ct method. The bars represent the means with standard error of the mean (SEM) and the fold change in the VEGF/GAPDH ratio relative to the vehicle-treated group. The different significance levels are indicated as **P < 0.05.
The influence of 8n on the degradation of Hsp90 client proteins was monitored by WB analysis. HepG2 cells were treated with different concentrations of 8n for 24 h. […] HIF-1α, as a key modulator of angiogenesis and an important client protein of Hsp90, was also examined, and the expression of HIF-1α decreased after treatment with 8n.

A549/taxol = test: MTT antiproliferative assay, Taxol-resistant A549; format: cell-based; settings: read-out: IC50 A549/taxol; MTT, 72 h; Taxol-resistant A549
Method: as §1

[1] = tested on: zebrafish embryos (intersegmental vessels); test: In vivo fluorescent zebrafish angiogenesis assay; settings: 24 h
Method: Zebrafish has been proposed as a valid alternative animal model for investigating angiogenesis. The effect of 8n on embryonic angiogenesis in zebrafish was evaluated.
Transgenic zebrafish (VEGFR2: GFP) embryos were supplied using the drug screening platform of the Shandong Academy of Sciences Institute; they were grown and maintained according to the same protocols. The screen was carried out in 24-well plates. Compounds were prepared initially as a 10 mg/mL stock solution in dimethyl sulfoxide (DMSO). The stock solution was diluted to the relevant assay concentration with fish water, and 0.5% DMSO served as a vehicle control. The embryos were distributed in 24-well plates, with 10 embryos placed in each well. Then, a diluted solution of each compound was added. The embryos were exposed to the compound solution and incubated at 28.5 °C. After 24 h, the zebrafish were anesthetized with 0.01% tricaine and imaged under a fluorescence microscope (Olympus, Inc.) equipped with a SZX16 microscope and a DP2-BSW digital camera (Olympus, Inc.). The animal experiments were performed in accordance with the approval of the Chinese Academy of Medical Sciences and the Biology Institute of Shandong Academy of Sciences. All studies were performed in accordance with the approved guidelines from the China Zebrafish Resource Center with the approved protocol number of 2012CB944504.

HUVECs = test: Wound healing assay (hypoxia-induced migration); format: cell-based, human; settings: 0.01, 0.05 and 0.25 μM, 24 h
Method: GA was reported to inhibit tumour angiogenesis and may be a viable drug candidate for anti-angiogenesis and anticancer therapies. Therefore, the anti-angiogenesis activity of the caged xanthone derivative 8n was evaluated. Human umbilical vein endothelial cells (HUVECs) were used in all experiments. Cell migration is critical for endothelial cells to form blood vessels during angiogenesis, tumour growth and metastasis. […] Endothelial cell invasion is a critical part of angiogenesis; therefore, a transwell assay was performed to evaluate the ability of inactivated HUVECs to pass through the transwell membrane barrier in the presence of 8n.
Figure 8 8n had anti-angiogenesis activity in vitro and in vivo. (A) A wound-healing assay was used to evaluate the motility of HUVECs after treatment with 8n for 24 h. (B) Changes in cell motility were evaluated using a transwell assay of cell migration and invasion. (C) The effect of 8n on tube formation by HUVECs. HUVECs were incubated with 8n for 6 h and then transferred to Matrigel for 6 h. (D) Zebrafish embryos treated with blank control or 1, 10, or 50 μg/ml of 8n.
HUVECs were incubated in a 6-well plate until full confluence. […] Then, the wound edges were photographed under an inverted-phase microscope and measured.

CC(C)=CCC12OC(C)(C)C3CC(C=C4C(=O)c5c(OC(=O)N6CCC(N7CCCCC7)CC6)cccc5OC431)C2=O (stereo not drawn) [Compound 8n]
IC50 (HCT116): 0.97 ± 0.12 µM
hypoxic induction of VEGF expression (mRNA) (VEGF): substantially repressed
IC50 (A549/taxol): 1.9 ± 0.12 µM
formation of intersegmental vessels ([1]; 10 μg/ml or 5 μg/ml): considerably inhibited
formation of intersegmental vessels ([1]; 50 μg/ml): completely blocked
hypoxia-induced migration of HUVECs (HUVECs): suppressed hypoxia-induced migration in a concentration-dependent manner
